Test [1] has as its target Cholecystokinin receptor (Rattus norvegicus) (UniProt P30551+P30553). The experiment in a line: Evaluated for effective dose required for suppression of food intake in rat (0-60 min). The test is classed as functional.
The species entered for test [2] is Cavia porcellus. The experiment in a line: (§1) Compound (10e-4 M) was evaluated in vitro for maximal stimulatory activity for PI hydrolysis relative to CCK-8 in guinea pig tissue. The test is classed as functional.
Test [3] concerns Rattus norvegicus. The experiment in a line: Compound was evaluated for % suppression (at 30 nmol/kg) of food intake in rat (360-420 min); not significant. The class given is functional, organism-based.
Test [4] relates to Cholecystokinin receptor type A (Cavia porcellus). The experiment in a line: Ratio for CCK-A receptor of guinea pig pancreas (IC50(nM)) to CCK-B receptor of guinea pig cortex (IC50(nM)).
The test system of test [5] is Rattus norvegicus. The test is described as follows: Compound was evaluated for % suppression (at 30 nmol/kg) of food intake in rat (360-420 min). The test is classed as functional.
For test [6], the species on record is Cavia porcellus. The experiment in a line: In vitro maximal stimulatory activity for amylase release relative to CCK-8 in guinea pig tissue at 20 nM. The class given is functional.
Test [7] deals with T1, Cholecystokinin receptor type A (Cavia porcellus, UniProt Q63931).
T1 sequence (Q63931 whole entry): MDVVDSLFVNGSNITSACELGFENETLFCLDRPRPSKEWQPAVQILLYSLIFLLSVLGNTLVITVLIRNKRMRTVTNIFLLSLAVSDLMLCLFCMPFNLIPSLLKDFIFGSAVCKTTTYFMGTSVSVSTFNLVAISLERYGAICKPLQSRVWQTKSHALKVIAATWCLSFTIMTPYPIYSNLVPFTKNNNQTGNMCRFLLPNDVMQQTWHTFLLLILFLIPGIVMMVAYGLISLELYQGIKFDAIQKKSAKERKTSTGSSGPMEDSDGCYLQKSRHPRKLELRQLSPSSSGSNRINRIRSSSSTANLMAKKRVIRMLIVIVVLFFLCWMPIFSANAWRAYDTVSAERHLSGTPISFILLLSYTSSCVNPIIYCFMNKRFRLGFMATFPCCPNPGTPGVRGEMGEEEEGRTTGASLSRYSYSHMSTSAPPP
The test is described as follows: Evaluated in vitro for its binding affinity towards cholecystokinin type A receptor of guinea pig pancreas.

Test [8] relates to Cholecystokinin receptor type A (Cavia porcellus). The experiment in a line: Evaluated in vitro for maximal stimulatory activity for PI hydrolysis relative to CCK-8 in guinea pig tissue.
Test [9] has as its target Cholecystokinin receptor type A (Cavia porcellus). The test is described as follows: Evaluated in vitro for maximal stimulatory activity for amylase release relative to CCK-8 in guinea pig tissue.
Test [10] is filed under the species Cavia porcellus. The test is described as follows: In vitro maximal stimulatory activity for amylase release relative to CCK-8 in guinea pig tissue at 5 nM. The class given is functional.
Test [11] addresses T2, Cholecystokinin receptor type A (Cavia porcellus) (UniProt Q63931).
T2 sequence (whole entry): T1 sequence (Q63931 whole entry)
The experiment in a line: Ratio of binding affinities for CCK-A receptor of guinea pig pancreas (IC50(nM)) to CCK-B receptor of guinea pig cortex (IC50(nM)). The class given is tissue-based.

Test [12] is filed under the species Cavia porcellus. The test is described as follows: In vitro maximal stimulatory activity for amylase release relative to CCK-8 in guinea pig tissue at 3 uM. The test is classed as functional.
Test [13] is filed under the species Cavia porcellus. The test is described as follows: In vitro maximal stimulatory activity for amylase release relative to CCK-8 in guinea pig tissue at 10 uM. The class given is functional.
Test [14] can be described thus: as §1. The test is classed as functional.

Active and inactive are the calls of the source. No cut-off for these calls is given here. *1 amine or outer side, *2 acyl side, *3 side chain or, on linkers, in order; H or OH if unused. Where a SMILES comes first, the peptide text is derived from it. [ ]: non-standard residue; d: D form. The star is where a group is joined. Hydrocinnamoyl(4-OSO3H) = O=C(CCc1ccc(OS(=O)(=O)O)cc1)*; X2 = O=C([C@@H]1CC(OS(=O)(=O)O)CN1[*:1])[*:2]; X5 = CCC[C@H]1CCN([*:1])[C@@H]1C(=O)[*:2]; X4 = O=C(c1ccc2cc(OS(=O)(=O)O)ccc2c1)*; X1 = CCCC1CCN([*:1])[C@@H]1C(=O)[*:2]; X6 = O=C(/C=C/c1ccc(OS(=O)(=O)O)cc1)*; X3 = O=C(/C(=C/c1ccccc1)N[*:1])[*:2]; NMeF = CN[C@@H](Cc1ccccc1)C(=O)O; NMeD = CN[C@@H](CC(=O)O)C(=O)O; NMeL = CN[C@@H](CC(C)C)C(=O)O; Nle = CCCC[C@H](N)C(=O)O; Ava = NCCCCC(=O)O

What is called ED50 is the dose that gives a 50% effect, or the effect in half of the subjects. In test [1], `CCCC[C@H](NC(=O)CCc1ccc(OS(=O)(=O)O)cc1)C(=O)NCC(=O)N[C@@H](Cc1c[nH]c2ccccc12)C(=O)N[C@@H](CCCC)C(=O)N1CC(OS(=O)(=O)O)C[C@H]1C(=O)N[C@@H](Cc1ccccc1)C(N)=O` (stereo partly specified) ({Hydrocinnamoyl(4-OSO3H)}-[Nle]GW[Nle][X2]F-NH2) yielded an ED50 greater than 1 µmol/kg. Also, the Max response in the test filed under Cavia porcellus [2] is recorded as 82%. Moreover, the Supression entry in the test on Rattus norvegicus [3] was “inactive”. Also, in [4], the Ratio worked out at 0.03.

In turn, `CCCC[C@H](NC(=O)CCc1ccc(OS(=O)(=O)O)cc1)C(=O)NCC(=O)N[C@@H](Cc1c[nH]c2ccccc12)C(=O)N[C@@H](CCCC)C(=O)N(C)[C@@H](CC(=O)O)C(=O)N[C@@H](Cc1ccccc1)C(N)=O` ({Hydrocinnamoyl(4-OSO3H)}-[Nle]GW[Nle][NMeD]F-NH2) yielded a Supression in the test with Rattus norvegicus [5] of 29%. In the test filed under Cavia porcellus [2], this compound gave a Max response of 100%.

What is called IC50 is the concentration that gives 50% inhibition. On to `CCCC[C@H](NC(=O)/C=C/c1ccc(OS(=O)(=O)O)cc1)C(=O)NCC(=O)N[C@@H](Cc1c[nH]c2ccccc12)C(=O)N[C@@H](CCCC)C(=O)N[C@@H](CC(=O)O)C(=O)N[C@@H](Cc1ccccc1)C(N)=O` (X6-[Nle]GW[Nle]DF-NH2), for which the Stimulation in the test filed under Cavia porcellus [6] worked out at 105%. Besides, the IC50 in [7] was 23 nM.

`CCCC[C@H](NC(=O)CCc1ccc(OS(=O)(=O)O)cc1)C(=O)NCC(=O)N[C@@H](Cc1c[nH]c2ccccc12)C(=O)N[C@@H](CCCC)C(=O)N[C@@H](CC(=O)O)C(=O)N(C)[C@@H](Cc1ccccc1)C(N)=O` ({Hydrocinnamoyl(4-OSO3H)}-[Nle]GW[Nle]D[NMeF]-NH2): the Supression with Rattus norvegicus [5] worked out at 30%. Moreover, the ED50 in [1] came out at 0.00245 µmol/kg. Further, in the test filed under Cavia porcellus [2], the Max response stood at 94%. Also, the Ratio in [4] was 0.1.

`CCC[C@H]1CCN(C(=O)[C@H](Cc2c[nH]c3ccccc23)NC(=O)CNC(=O)[C@@H]2CCCN2C(=O)CCc2ccc(OS(=O)(=O)O)cc2)[C@@H]1C(=O)N[C@@H](CC(=O)O)C(=O)N(C)[C@@H](Cc1ccccc1)C(N)=O` ({Hydrocinnamoyl(4-OSO3H)}-PGW[X5]D[NMeF]-NH2) [listing 1 of 2 here] had an IC50 in test [7] of 7.3 nM.

One may read the EC50 as the concentration needed to bring the measured effect to its halfway point. A low value points to a more potent agent. Take `CCCC[C@H](NC(=O)CCc1ccc(OS(=O)(=O)O)cc1)C(=O)NCC(=O)N[C@@H](Cc1c[nH]c2ccccc12)C(=O)N(C)[C@@H](CC(C)C)C(=O)N[C@@H](CC(=O)O)C(=O)N[C@@H](Cc1ccccc1)C(N)=O` ({Hydrocinnamoyl(4-OSO3H)}-[Nle]GW[NMeL]DF-NH2): in test [8], the Max response is 80%. The IC50 in test [7] turned out to be 140 nM. In addition, in test [9], the concentration giving a half-maximal response (EC50) was 15 nM. The Ratio in test [4] worked out at 625.

`CCC[C@H]1CCN(C(=O)[C@H](Cc2c[nH]c3ccccc23)NC(=O)CNC(=O)[C@@H]2CCCN2C(=O)CCc2ccc(OS(=O)(=O)O)cc2)[C@@H]1C(=O)N[C@@H](CC(=O)O)C(=O)N(C)[C@@H](Cc1ccccc1)C(N)=O` ({Hydrocinnamoyl(4-OSO3H)}-PGW[X5]D[NMeF]-NH2) [listing 2 of 2 here] displayed a Stimulation in the test listed under Cavia porcellus [10] of 83%.

Compound `CCCC[C@H](NC(=O)CCc1ccc(OS(=O)(=O)O)cc1)C(=O)NCC(=O)N[C@@H](Cc1c[nH]c2ccccc12)C(=O)N[C@@H](CCCC)C(=O)N[C@@H](CC(=O)O)C(=O)N[C@@H](Cc1ccccc1)C(N)=O` came in with a Max response in [8] of 100%. The 50% effect level in test [1] (ED50) was put at a dose of 0.00398 µmol/kg. For the same compound, the Ratio in [11] was 1.53. In test [7], this compound came in with an IC50 of 0.77 nM. This compound also registered a 50% effective concentration (EC50) in [9] of 0.99 nM. The Supression entry in the test on Rattus norvegicus [3] was “inactive”.

In turn, `CCCC[C@H](NC(=O)[C@H](Cc1c[nH]c2ccccc12)NC(=O)CNC(=O)[C@H](CC(C)C)NC(=O)CCc1ccc(OS(=O)(=O)O)cc1)C(=O)N[C@@H](CC(=O)O)C(=O)N[C@@H](Cc1ccccc1)C(N)=O` ({Hydrocinnamoyl(4-OSO3H)}-LGW[Nle]DF-NH2) gave a Max response in test [8] of 120%. In [7], this compound displayed an IC50 of 0.67 nM. The same compound returned an EC50 in [9] of 0.64 nM. The Ratio in test [4] amounted to 1.1.

In [8], `CC(C)C[C@H](NC(=O)[C@H](Cc1c[nH]c2ccccc12)NC(=O)CCCCNC(=O)CCc1ccc(OS(=O)(=O)O)cc1)C(=O)N[C@@H](CC(=O)O)C(=O)N[C@@H](Cc1ccccc1)C(N)=O` ({Hydrocinnamoyl(4-OSO3H)-Ava}-WLDF-NH2) registered a Max response of 64%. Besides, the half-inhibitory concentration (IC50) in [7] stood at 150 nM. For the same compound, the EC50 in test [9] was 140 nM. In test [4], the Ratio worked out at 143.

Take `CCCC[C@H](NC(=O)CCc1ccc(OS(=O)(=O)O)cc1)C(=O)NCC(=O)N[C@@H](Cc1c[nH]c2ccccc12)C(=O)N1CCC(CCC)[C@H]1C(=O)N[C@@H](CC(=O)O)C(=O)N(C)[C@@H](Cc1ccccc1)C(N)=O` (stereo partly specified) ({Hydrocinnamoyl(4-OSO3H)}-[Nle]GW[X1]D[NMeF]-NH2): the ED50 in test [1] stood at 0.00877 µmol/kg. Moreover, in the test filed under Cavia porcellus [2], the Max response is 83%. In the test on Rattus norvegicus [3], the Supression result was “inactive”. In addition, in [4], the Ratio was determined as 14.3.

With `CCCC[C@H](NC(=O)CCc1ccc(OS(=O)(=O)O)cc1)C(=O)NCC(=O)N[C@@H](Cc1c[nH]c2ccccc12)C(=O)N1CCC[C@H]1C(=O)N[C@@H](CC(=O)O)C(=O)N(C)[C@@H](Cc1ccccc1)C(N)=O` ({Hydrocinnamoyl(4-OSO3H)}-[Nle]GWPD[NMeF]-NH2), in test [7], the IC50 is 81 nM. This compound came in with a Stimulation in the test listed under Cavia porcellus [12] of 98%.

Compound `CCCC[C@H](NC(=O)c1ccc2cc(OS(=O)(=O)O)ccc2c1)C(=O)NCC(=O)N[C@@H](Cc1c[nH]c2ccccc12)C(=O)N[C@@H](CCCC)C(=O)N[C@@H](CC(=O)O)C(=O)N[C@@H](Cc1ccccc1)C(N)=O` (X4-[Nle]GW[Nle]DF-NH2) returned a Max response in test [8] of 16%. The compound further came in with an IC50 in test [7] of 900 nM. This compound registered a Stimulation in the test filed under Cavia porcellus [13] of 44%. In test [4], the Ratio was found to be 0.04.

Turning to `CCCC[C@H](NC(=O)[C@H](Cc1c[nH]c2ccccc12)NC(=O)CNC(=O)[C@@H](CCCC)NC(=O)CCc1ccc(OS(=O)(=O)O)cc1)C(=O)N[C@@H](CC(=O)O)C(=O)N[C@@H](Cc1ccccc1)C(N)=O`, the Max response in test [8] was found to be 52%. The IC50 in test [7] worked out at 150 nM. For the same compound, in test [4], the Ratio was determined as 18.5.

In [8], `CCCC[C@H](NC(=O)[C@H](Cc1c[nH]c2ccccc12)NC(=O)CN1CC[C@H](NC(=O)CCc2ccc(OS(=O)(=O)O)cc2)C1=O)C(=O)N[C@@H](CC(=O)O)C(=O)N[C@@H](Cc1ccccc1)C(N)=O` showed a Max response of 86%. For the same compound, the IC50 in test [7] is 130 nM. For the same compound, the half-maximal effective concentration (EC50) in [9] turned out to be 71 nM. Moreover, the Ratio in test [4] amounted to 9.

In the case of `CCCC[C@H](NC(=O)CCc1ccc(OS(=O)(=O)O)cc1)C(=O)NCC(=O)N[C@@H](Cc1c[nH]c2ccccc12)C(=O)N[C@@H](CCCC)C(=O)N[C@@H](CC(=O)O)C(=O)N/C(=C\c1ccccc1)C(N)=O` ({Hydrocinnamoyl(4-OSO3H)}-[Nle]GW[Nle]D[X3]-NH2), in [14], the Max response amounted to 69%. For the same compound, the Ratio in test [4] came out at 0.62.

The values are drawn from ChEMBL document CHEMBL1125509, “Synthesis and biological activity of CCK heptapeptide analogues. Effects of conformational constraints and standard modifications on receptor subtype selectivity, functional activity in vitro, and appetite suppression in vivo” (J Med Chem, 1992).
